These are literature values, as cited in patent publication US20250151766A1, “SWEETENED COMPOSITION AND PREPARATION METHOD AND USE THEREOF” (GUILIN LAYN NATURAL INGREDIENTS CORP., priority 2022, published 2025).

For the series the following is noted: general statement in the description.

As to `O=C(CO)[C@@H](O)[C@H](O)[C@H](O)CO` [fructose], the sweetness is reported as 1.5 ×.
